Molecules are shown by their SMILES. Some results are limits rather than exact numbers.

The experiment deals with T1, Androgen Receptor protein in human LnCaP cells (Homo sapiens, UniProt P10275, T878A).
T1 construct: the AR gene was modified, using CRISPR/Cas9 editing, so the expressed AR protein included an 11 amino acid HiBiT tag; endogenous in cells; host or cells: clonal LnCaP derived cell line, endogenous AR gene edited by CRISPR/Cas9
T1 sequence (P10275 1-920 T878A): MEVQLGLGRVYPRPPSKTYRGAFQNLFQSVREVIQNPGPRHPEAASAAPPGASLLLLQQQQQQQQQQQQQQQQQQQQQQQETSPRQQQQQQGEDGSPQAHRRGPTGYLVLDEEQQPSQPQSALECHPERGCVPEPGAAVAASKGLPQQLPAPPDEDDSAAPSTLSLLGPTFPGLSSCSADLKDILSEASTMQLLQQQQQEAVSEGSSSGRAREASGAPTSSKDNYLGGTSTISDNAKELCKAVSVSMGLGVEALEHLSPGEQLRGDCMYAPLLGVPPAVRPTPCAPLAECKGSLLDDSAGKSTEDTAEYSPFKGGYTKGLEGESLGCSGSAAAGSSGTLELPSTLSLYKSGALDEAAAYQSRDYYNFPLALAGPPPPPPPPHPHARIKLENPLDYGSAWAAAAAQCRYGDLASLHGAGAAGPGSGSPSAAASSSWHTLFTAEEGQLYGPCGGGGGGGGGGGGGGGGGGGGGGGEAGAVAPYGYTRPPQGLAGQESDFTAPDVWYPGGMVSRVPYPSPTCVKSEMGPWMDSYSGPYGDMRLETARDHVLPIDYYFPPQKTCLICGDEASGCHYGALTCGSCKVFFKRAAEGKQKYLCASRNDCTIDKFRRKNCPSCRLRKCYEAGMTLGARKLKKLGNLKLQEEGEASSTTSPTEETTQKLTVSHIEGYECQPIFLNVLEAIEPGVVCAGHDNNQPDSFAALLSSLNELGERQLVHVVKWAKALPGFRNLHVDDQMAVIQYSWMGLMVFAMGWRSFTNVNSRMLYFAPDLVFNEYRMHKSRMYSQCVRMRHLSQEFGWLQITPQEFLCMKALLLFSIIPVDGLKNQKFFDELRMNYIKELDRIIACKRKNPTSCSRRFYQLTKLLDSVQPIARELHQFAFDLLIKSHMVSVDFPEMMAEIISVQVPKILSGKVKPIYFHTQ
Put plainly: Androgen Receptor Degradation Assay (Nano-Glo HiBiT, LnCaP cells). Format: cell-based. As to conditions: 18 h, HiBiT-tagged AR LnCaP cells, 18 h incubation, fitted curve asymptote maximum of degradation, read-out: mean asymptote max. As to the method:
Degradation of Androgen Receptor protein in human LnCaP cells treated with PROTACs was quantified using the Nano-Glo® HiBiT Lytic Detection System (Promega) in 384 well assay plate format. A clonal LnCaP derived cell line was first established in which the AR gene was modified, using CRISPR/Cas9 editing, so the expressed AR protein included an 11 amino acid HiBiT tag at its amino-terminus. 10 mM DMSO stock solutions of PROTACs were prepared and diluted across an 11 concentration, 3 fold increment range, and 25 nL dispensed into a white opaque bottomed 384 well assay plate (Thermofisher) using an acoustic ECHO dispenser (Labcyte). Cells were grown in cell culture medium (RPMI 1640 supplemented with 15% FBS, penicillin 50U/mL and streptomycin 50 ug/mL (Thermofisher)). For the assay, cells were detached from flask and resuspended with assay medium (FluoroBrite™ DMEM supplemented with 10% heat inactivated FBS, penicillin 50U/mL and streptomycin 50 ug/mL (Thermofisher)). The cell suspension was centrifuged at 400 g for 5 min and the pellet resuspended in assay medium. 25 μL of cell suspension containing 10,000 cells was dispensed into each well of the assay plate containing a serial dilution of test compounds, which was then incubated for 18 h at 37° C./5% CO2. Control wells were included on each assay plate, with assay medium without cells being the no AR remaining 100% effect control, and cells treated with DMSO vehicle only, without PROTAC, the 0% effect control. 25 μL of Nano-Glo® HiBiT lysis buffer supplemented with LgBiT protein and Nano-Glo® substrate (Promega) was added to each well and the plate shaken at 500 rpm for 10 min at room temperature. The intensity of luminescence was measured using a PHERAstar microplate reader (BMG Labtech) and the % AR protein remaining in each well calculated by normalising the raw luminescence value to the above control wells. Parameters corresponding to the potency and efficacy estimates of the PROTACs were obtained from these normalised luminescence values using software (IDBS ActivityBase). These included the DC50 (concentration at which 50% of protein was degraded in M) and the Dmax (maximal degradation, in %) estimates. Two versions of the DC50, called relative DC50 and absolute DC50, were generated. These are the inflection point of a fitted 4 parameter sigmoidal response curve and the interpolated concentration of PROTAC corresponding to 50% of the protein being degraded, respectively. The corresponding pDC50 is reported as −log10(relative […]). The Dmax parameter was the maximum experimentally observed degradation and the asymptote max parameter the fitted response curve asymptote maximum.
(HiBiT is a short tag that completes a luciferase, so light tracks the accessible tagged protein.)
Turning to `CC1(C)[C@H](NC(=O)c2ccc(N3CCC(O)(CN4CCC(n5ncc6c(N7CCC(=O)NC7=O)cccc65)CC4)CC3)c(F)c2)C(C)(C)[C@H]1Oc1ccc(C#N)c2ncccc12` [Example 48, N-((1r,3r)-3-((8-Cyanoquinolin-5-yl)oxy)-2,2,4,4-tetramethylcyclobutyl)-4-(4-((4-(4-(2,4-dioxotetrahydropyrimidin-1(2H)-yl)-1H-indazol-1-yl)piperidin-1-yl)methyl)-4-hydroxypiperidin-1-yl)-3-fluorobenzamide], the Dmax is at least 50%.

Take `CC1(C)[C@H](NC(=O)c2ccc(N3CCC(CN4CCC(n5ncc6c(N7CCC(=O)NC7=O)cccc65)CC4)CC3)c(F)c2)C(C)(C)[C@H]1Oc1ccc(C#N)c2c1CCCO2` [Example 8, N-((1r,3r)-3-((8-Cyanochroman-5-yl)oxy)-2,2,4,4-tetramethylcyclobutyl)-4-(4-((4-(4-(2,4-dioxotetrahydropyrimidin-1(2H)-yl)-1H-indazol-1-yl)piperidin-1-yl)methyl)piperidin-1-yl)-3-fluorobenzamide]: the Dmax is at least 50%.

On to `COc1cc(O[C@H]2C(C)(C)[C@H](NC(=O)c3ccc(N4CCC(CN5CCC(n6ncc7c(N8CCC(=O)NC8=O)cccc76)CC5)CC4)cc3)C2(C)C)ccc1C#N` [Example 15, N-((1r,3r)-3-(4-Cyano-3-methoxyphenoxy)-2,2,4,4-tetramethylcyclobutyl)-4-(4-((4-(4-(2,4-dioxotetrahydropyrimidin-1(2H)-yl)-1H-indazol-1-yl)piperidin-1-yl)methyl)piperidin-1-yl)benzamide], for which the Dmax was at least 50%.

With `CC1(C)[C@H](NC(=O)c2ccc(N3CCC(CN4CC[C@@H](n5ncc6c(N7CCC(=O)NC7=O)cccc65)[C@@H](F)C4)CC3)c(F)c2)C(C)(C)[C@H]1Oc1ccc(C#N)c2ncccc12` [Example 45, N-((1r,3r)-3-((8-Cyanoquinolin-5-yl)oxy)-2,2,4,4-tetramethylcyclobutyl)-4-(4-(((35,4R)-4-(4-(2,4-dioxotetrahydropyrimidin-1(2H)-yl)-1H-indazol-1-yl)-3-fluoropiperidin-1-yl)methyl)piperidin-1-yl)-3-fluorobenzamide], the Dmax is at least 50%.

As for `CC1(C)[C@H](NC(=O)c2ccc(N3CCC(CN4CCC(n5ncc6c(N7CCC(=O)NC7=O)cc(F)cc65)CC4)CC3)c(F)c2)C(C)(C)[C@H]1Oc1ccc(C#N)c2ncccc12` [Example 38, N-((1r,3r)-3-((8-Cyanoquinolin-5-yl)oxy)-2,2,4,4-tetramethylcyclobutyl)-4-(4-((4-(4-(2,4-dioxotetrahydropyrimidin-1(2H)-yl)-6-fluoro-1H-indazol-1-yl)piperidin-1-yl)methyl)piperidin-1-yl)-3-fluorobenzamide], the Dmax was at least 50%.

In the case of `CC1(C)[C@H](NC(=O)c2ccc(N3CCC(CN4CCC(n5ccc6c(N7CCC(=O)NC7=O)ncnc65)CC4)CC3)cc2)C(C)(C)[C@H]1Oc1ccc(C#N)c2ncccc12` [Example 28, N-((1r,3r)-3-((8-Cyanoquinolin-5-yl)oxy)-2,2,4,4-tetramethylcyclobutyl)-4-(4-((4-(4-(2,4-dioxotetrahydropyrimidin-1(2H)-yl)-7H-pyrrolo[2,3-d]pyrimidin-7-yl)piperidin-1-yl)methyl)piperidin-1-yl)benzamide], the Dmax was at least 50%.

For the molecule `CC1(C)[C@H](NC(=O)c2ccc(N3CCC(CN4CCC(n5ncc6c(N7CCC(=O)NC7=O)cccc65)CC4)CC3)c(F)c2)C(C)(C)[C@H]1Oc1cnc(C#N)c(Cl)c1` [Example 3, N-((1r,3r)-3-((5-Chloro-6-cyanopyridin-3-yl)oxy)-2,2,4,4-tetramethylcyclobutyl)-4-(4-((4-(4-(2,4-dioxotetrahydropyrimidin-1(2H)-yl)-1H-indazol-1-yl)piperidin-1-yl)methyl)piperidin-1-yl)-3-fluorobenzamide], the Dmax was at least 50%.

In the case of `CC1(C)[C@H](NC(=O)c2ccc(N3CCC(CN4CCC(n5ccc6c(N7CCC(=O)NC7=O)cccc65)CC4)CC3)c(F)c2)C(C)(C)[C@H]1Oc1ccc(C#N)c2ncccc12` [Example 31, N-((1r,3r)-3-((8-Cyanoquinolin-5-yl)oxy)-2,2,4,4-tetramethylcyclobutyl)-4-(4-((4-(4-(2,4-dioxotetrahydropyrimidin-1(2H)-yl)-1H-indol-1-yl)piperidin-1-yl)methyl)piperidin-1-yl)-3-fluorobenzamide], the Dmax was at least 50%.

In the case of `CC1(C)[C@H](NC(=O)c2ccc(N3CCC(CN4CCC(n5ncc6c(N7CCC(=O)NC7=O)cc(Cl)cc65)CC4)CC3)c(F)c2)C(C)(C)[C@H]1Oc1ccc(C#N)c2ncccc12` [Example 41, 4-(4-((4-(6-Chloro-4-(2,4-dioxotetrahydropyrimidin-1(2H)-yl)-1H-indazol-1-yl)piperidin-1-yl)methyl)piperidin-1-yl)-/-((1r,3r)-3-((8-cyanoquinolin-5-yl)oxy)-2,2,4,4-tetramethylcyclobutyl)-3-fluorobenzamide], the Dmax was at least 50%.

Take `CC1(C)[C@H](NC(=O)c2ccc(N3CC[C@H](CN4CCC(n5ncc6c(N7CCC(=O)NC7=O)cccc65)CC4)C3)c(F)c2)C(C)(C)[C@H]1Oc1ccc(C#N)c2ncccc12` [Example 34, N-((1r,3R)-3-((8-Cyanoquinolin-5-yl)oxy)-2,2,4,4-tetramethylcyclobutyl)-4-((R)-3-((4-(4-(2,4-dioxotetrahydropyrimidin-1(2H)-yl)-1H-indazol-1-yl)piperidin-1-yl)methyl)pyrrolidin-1-yl)-3-fluorobenzamide]: the Dmax was at least 50%.

Regarding `CC1(C)[C@H](NC(=O)c2ccc(N3CCC(CN4CCC(n5ncc6c(N7CCC(=O)NC7=O)ccnc65)CC4)CC3)c(F)c2)C(C)(C)[C@H]1Oc1ccc(C#N)c2ncccc12` [Example 40, N-((1r,3r)-3-((8-Cyanoquinolin-5-yl)oxy)-2,2,4,4-tetramethylcyclobutyl)-4-(4-((4-(4-(2,4-dioxotetrahydropyrimidin-1(2H)-yl)-1H-pyrazolo[3,4-b]pyridin-1-yl)piperidin-1-yl)methyl)piperidin-1-yl)-3-fluorobenzamide], the Dmax was at least 50%.

For the molecule `CC1(C)[C@H](NC(=O)c2ccc(N3CCC(CN4CCC(n5ncc6c(N7CCC(=O)NC7=O)cc(C(F)(F)F)cc65)CC4)CC3)c(F)c2)C(C)(C)[C@H]1Oc1ccc(C#N)c2ncccc12` [Example 42, N-((1r,3r)-3-((8-Cyanoquinolin-5-yl)oxy)-2,2,4,4-tetramethylcyclobutyl)-4-(4-((4-(4-(2,4-dioxotetrahydropyrimidin-1(2H)-yl)-6-(trifluoromethyl)-1H-indazol-1-yl)piperidin-1-yl)methyl)piperidin-1-yl)-3-fluorobenzamide], the Dmax is at least 50%.

Values taken from patent publication US12577231B2, “Androgen receptor PROTACS” (GlaxoSmithKline Intellectual Property Development Limited, priority 2023, dated 2026).
